Measured values as given in patent US10485235B2, “Aryloxypyrimidinyl ethers as herbicides” (FMC Corporation, priority 2015, dated 2019).

System: barnyardgrass (Echinochloa crus-galli)
Assay: Test A preemergence, barnyardgrass
Assay type: in vivo
Settings: Preemergence, 31 g ai/ha; 0 to 100 scale (0 no effect, 100 complete control)
Text: (§1) Seeds of plant species selected from barnyardgrass (Echinochloa crus-galli), kochia (Kochia scoparia), ragweed (common ragweed, Ambrosia elatior), ryegrass, Italian (Italian ryegrass, Lolium multiflorum), foxtail, giant (giant foxtail, Setaria faberii), and pigweed (Amaranthus retroflexus), were planted into a blend of loam soil and sand and treated preemergence with a directed soil spray using test chemicals formulated in a non-phytotoxic solvent mixture which included a surfactant.
(§2) At the same time, plants selected from these weed species and also wheat (Triticum aestivum), corn (Zea mays), blackgrass (Alopecurus myosuroides), and galium (catchweed bedstraw, Galium aparine), were planted in pots containing the same blend of loam soil and sand and treated with postemergence applications of test chemicals formulated in the same manner. Plants ranged in height from 2 to 10 cm and were in the one- to two-leaf stage for the postemergence treatment. Treated plants and untreated controls were maintained in a greenhouse for approximately 10 days, after which time all treated plants were compared to untreated controls and visually evaluated for injury. Plant response ratings, summarized in Table A, are based on a 0 to 100 scale where 0 is no effect and 100 is complete control. A dash (—) response means no test result.

SMILES	Plant response rating, Barnyardgrass
N#CCCCOc1c(C#N)cccc1Oc1ncc(F)cn1 [Compound 37]	0

Same assay, conditions: Preemergence, 125 g ai/ha; 0 to 100 scale (0 no effect, 100 complete control)

SMILES	Plant response rating, Barnyardgrass
N#CCCCOc1c(C#N)cccc1Oc1ncc(F)cn1 [Compound 37]	20

System: kochia (Kochia scoparia)
Assay: Test A preemergence, kochia
Assay type: in vivo
Settings: Preemergence, 31 g ai/ha; 0 to 100 scale (0 no effect, 100 complete control)
Text: as §1, §2

SMILES	Plant response rating, Kochia
N#CCCCOc1c(C#N)cccc1Oc1ncc(F)cn1 [Compound 37]	30

Same assay, conditions: Preemergence, 125 g ai/ha; 0 to 100 scale (0 no effect, 100 complete control)

SMILES	Plant response rating, Kochia
N#CCCCOc1c(C#N)cccc1Oc1ncc(F)cn1 [Compound 37]	80

System: ragweed (common ragweed, Ambrosia elatior)
Assay: Test A preemergence, ragweed
Assay type: in vivo
Settings: Preemergence, 31 g ai/ha; 0 to 100 scale (0 no effect, 100 complete control)
Text: as §1, §2

SMILES	Plant response rating, Ragweed
N#CCCCOc1c(C#N)cccc1Oc1ncc(F)cn1 [Compound 37]	30

Same assay, conditions: Preemergence, 125 g ai/ha; 0 to 100 scale (0 no effect, 100 complete control)

SMILES	Plant response rating, Ragweed
N#CCCCOc1c(C#N)cccc1Oc1ncc(F)cn1 [Compound 37]	70

System: ryegrass, Italian (Italian ryegrass, Lolium multiflorum)
Assay: Test A preemergence, Italian ryegrass
Assay type: in vivo
Settings: Preemergence, 31 g ai/ha; 0 to 100 scale (0 no effect, 100 complete control)
Text: as §1, §2

SMILES	Plant response rating, Ryegrass, Italian
N#CCCCOc1c(C#N)cccc1Oc1ncc(F)cn1 [Compound 37]	0

Same assay, conditions: Preemergence, 125 g ai/ha; 0 to 100 scale (0 no effect, 100 complete control)

SMILES	Plant response rating, Ryegrass, Italian
N#CCCCOc1c(C#N)cccc1Oc1ncc(F)cn1 [Compound 37]	0

System: foxtail, giant (giant foxtail, Setaria faberii)
Assay: Test A preemergence, giant foxtail
Assay type: in vivo
Settings: Preemergence, 31 g ai/ha; 0 to 100 scale (0 no effect, 100 complete control)
Text: as §1, §2

SMILES	Plant response rating, Foxtail, Giant
N#CCCCOc1c(C#N)cccc1Oc1ncc(F)cn1 [Compound 37]	20

Same assay, conditions: Preemergence, 125 g ai/ha; 0 to 100 scale (0 no effect, 100 complete control)

SMILES	Plant response rating, Foxtail, Giant
N#CCCCOc1c(C#N)cccc1Oc1ncc(F)cn1 [Compound 37]	50

System: pigweed (Amaranthus retroflexus)
Assay: Test A preemergence, pigweed
Assay type: in vivo
Settings: Preemergence, 31 g ai/ha; 0 to 100 scale (0 no effect, 100 complete control)
Text: as §1, §2

SMILES	Plant response rating, Pigweed
N#CCCCOc1c(C#N)cccc1Oc1ncc(F)cn1 [Compound 37]	100

Same assay, conditions: Preemergence, 125 g ai/ha; 0 to 100 scale (0 no effect, 100 complete control)

SMILES	Plant response rating, Pigweed
N#CCCCOc1c(C#N)cccc1Oc1ncc(F)cn1 [Compound 37]	100

System: barnyardgrass (Echinochloa crus-galli)
Assay: Test A postemergence, barnyardgrass
Assay type: in vivo
Settings: 31 g ai/ha, postemergence; 0 to 100 scale, 0 is no effect, 100 is complete control; approximately 10 days
Text: as §1, §2

SMILES	Plant response rating, Barnyardgrass
N#CCCCOc1c(C#N)cccc1Oc1ncc(F)cn1 [Compound 37]	10

Same assay, conditions: 125 g ai/ha, postemergence; 0 to 100 scale, 0 is no effect, 100 is complete control; approximately 10 days

SMILES	Plant response rating, Barnyardgrass
N#CCCCOc1c(C#N)cccc1Oc1ncc(F)cn1 [Compound 37]	20

System: kochia (Kochia scoparia)
Assay: Test A postemergence, kochia
Assay type: in vivo
Settings: 31 g ai/ha, postemergence; 0 to 100 scale, 0 is no effect, 100 is complete control; approximately 10 days
Text: as §1, §2

SMILES	Plant response rating, Kochia
N#CCCCOc1c(C#N)cccc1Oc1ncc(F)cn1 [Compound 37]	50

Same assay, conditions: 125 g ai/ha, postemergence; 0 to 100 scale, 0 is no effect, 100 is complete control; approximately 10 days

SMILES	Plant response rating, Kochia
N#CCCCOc1c(C#N)cccc1Oc1ncc(F)cn1 [Compound 37]	80

System: ragweed (common ragweed, Ambrosia elatior)
Assay: Test A postemergence, ragweed
Assay type: in vivo
Settings: 31 g ai/ha, postemergence; 0 to 100 scale, 0 is no effect, 100 is complete control; approximately 10 days
Text: as §1, §2

SMILES	Plant response rating, Ragweed
N#CCCCOc1c(C#N)cccc1Oc1ncc(F)cn1 [Compound 37]	30

Same assay, conditions: 125 g ai/ha, postemergence; 0 to 100 scale, 0 is no effect, 100 is complete control; approximately 10 days

SMILES	Plant response rating, Ragweed
N#CCCCOc1c(C#N)cccc1Oc1ncc(F)cn1 [Compound 37]	50

System: ryegrass, Italian (Italian ryegrass, Lolium multiflorum)
Assay: Test A postemergence, Italian ryegrass
Assay type: in vivo
Settings: 31 g ai/ha, postemergence; 0 to 100 scale, 0 is no effect, 100 is complete control; approximately 10 days
Text: as §1, §2

SMILES	Plant response rating, Ryegrass, Italian
N#CCCCOc1c(C#N)cccc1Oc1ncc(F)cn1 [Compound 37]	0

Same assay, conditions: 125 g ai/ha, postemergence; 0 to 100 scale, 0 is no effect, 100 is complete control; approximately 10 days

SMILES	Plant response rating, Ryegrass, Italian
N#CCCCOc1c(C#N)cccc1Oc1ncc(F)cn1 [Compound 37]	0

System: foxtail, giant (giant foxtail, Setaria faberii)
Assay: Test A postemergence, giant foxtail
Assay type: in vivo
Settings: 31 g ai/ha, postemergence; 0 to 100 scale, 0 is no effect, 100 is complete control; approximately 10 days
Text: as §1, §2

SMILES	Plant response rating, Foxtail, Giant
N#CCCCOc1c(C#N)cccc1Oc1ncc(F)cn1 [Compound 37]	0

Same assay, conditions: 125 g ai/ha, postemergence; 0 to 100 scale, 0 is no effect, 100 is complete control; approximately 10 days

SMILES	Plant response rating, Foxtail, Giant
N#CCCCOc1c(C#N)cccc1Oc1ncc(F)cn1 [Compound 37]	10

System: pigweed (Amaranthus retroflexus)
Assay: Test A postemergence, pigweed
Assay type: in vivo
Settings: 31 g ai/ha, postemergence; 0 to 100 scale, 0 is no effect, 100 is complete control; approximately 10 days
Text: as §1, §2

SMILES	Plant response rating, Pigweed
N#CCCCOc1c(C#N)cccc1Oc1ncc(F)cn1 [Compound 37]	60

Same assay, conditions: 125 g ai/ha, postemergence; 0 to 100 scale, 0 is no effect, 100 is complete control; approximately 10 days

SMILES	Plant response rating, Pigweed
N#CCCCOc1c(C#N)cccc1Oc1ncc(F)cn1 [Compound 37]	70

System: wheat (Triticum aestivum)
Assay: Test A postemergence, wheat
Assay type: in vivo
Settings: 31 g ai/ha, postemergence; 0 to 100 scale, 0 is no effect, 100 is complete control; approximately 10 days
Text: as §1, §2

SMILES	Plant response rating, Wheat
N#CCCCOc1c(C#N)cccc1Oc1ncc(F)cn1 [Compound 37]	0

Same assay, conditions: 125 g ai/ha, postemergence; 0 to 100 scale, 0 is no effect, 100 is complete control; approximately 10 days

SMILES	Plant response rating, Wheat
N#CCCCOc1c(C#N)cccc1Oc1ncc(F)cn1 [Compound 37]	0

System: corn (Zea mays)
Assay: Test A postemergence, corn
Assay type: in vivo
Settings: 31 g ai/ha, postemergence; 0 to 100 scale, 0 is no effect, 100 is complete control; approximately 10 days
Text: as §1, §2

SMILES	Plant response rating, Corn
N#CCCCOc1c(C#N)cccc1Oc1ncc(F)cn1 [Compound 37]	0

Same assay, conditions: 125 g ai/ha, postemergence; 0 to 100 scale, 0 is no effect, 100 is complete control; approximately 10 days

SMILES	Plant response rating, Corn
N#CCCCOc1c(C#N)cccc1Oc1ncc(F)cn1 [Compound 37]	20

System: blackgrass (Alopecurus myosuroides)
Assay: Test A postemergence, blackgrass
Assay type: in vivo
Settings: 31 g ai/ha, postemergence; 0 to 100 scale, 0 is no effect, 100 is complete control; approximately 10 days
Text: as §1, §2

SMILES	Plant response rating, Blackgrass
N#CCCCOc1c(C#N)cccc1Oc1ncc(F)cn1 [Compound 37]	0

Same assay, conditions: 125 g ai/ha, postemergence; 0 to 100 scale, 0 is no effect, 100 is complete control; approximately 10 days

SMILES	Plant response rating, Blackgrass
N#CCCCOc1c(C#N)cccc1Oc1ncc(F)cn1 [Compound 37]	10

System: galium (catchweed bedstraw, Galium aparine)
Assay: Test A postemergence, galium
Assay type: in vivo
Settings: 31 g ai/ha, postemergence; 0 to 100 scale, 0 is no effect, 100 is complete control; approximately 10 days
Text: as §1, §2

SMILES	Plant response rating, Galium
N#CCCCOc1c(C#N)cccc1Oc1ncc(F)cn1 [Compound 37]	40

Same assay, conditions: 125 g ai/ha, postemergence; 0 to 100 scale, 0 is no effect, 100 is complete control; approximately 10 days

SMILES	Plant response rating, Galium
N#CCCCOc1c(C#N)cccc1Oc1ncc(F)cn1 [Compound 37]	60
